According to patent publication US20150344540A1, “NOVEL GLP-1 RECEPTOR AGONISTS WITH CHOLESTEROL EFFLUX ACTIVITY” (NOVO NORDISK A/S, priority 2012, published 2015):
Like-named read-outs stand apart in the source and are kept apart here. Where a SMILES comes first, the peptide text is derived from it. [ ]: non-standard residue; d: D form. Aib = CC(C)(N)C(=O)O

Tests used:
[1] = test system: Mouse monocyte/macrophage cell line, RAW 264.7; assay: Cholesterol efflux assay (3H-cholesterol, macrophage cell line); format: cell-based; conditions: RAW 264.7, 4 hrs incubation, 0.1% human serum albumin; for 4 h Cholesterol Efflux Emax: ABCA1-mediated efflux
[2] = Pharmacokinetics in mini-pigs after i.v. administration; conditions: female, Göttingen, minipig, iv, 5 nmol/kg
Text: The aim of the study is to assess the pharmacokinetic properties of the compounds of the invention, in mini-pigs.
Göttingen mini-pigs female, 15-20 kg, purchased from Ellegaard Mini-pigs, Denmark, were housed in the Animal Unit, Novo Nordisk A/S and were kept and handled according to normal procedure in the Animal Unit. After minimum 2 weeks of acclimatization two permanent central venous catheters were implemented in vena cava caudalis in each animal. After surgery the animals were in their normal individual pens during the pharmacokinetic experiments.
Intravenous injections were given through the central short catheter, which was flushed with min 10 ml of sterile saline post administration. The test substance was dosed at 5 nmol/kg, N=3, in a volume of 0.05 ml/kg.
On day 1 the catheters are coupled to extension tubes, which will be removed at the end of day 1.
Samples were kept on wet ice until centrifugation (10 min, 4° C., 1942 g). Afterwards, plasma (min. 100 μl) was transferred immediately to Micronic tubes and kept at −20° C. until analysis. The plasma samples were analysed by an immunoaasay described below.
The plasma concentrations of the peptides with intact N-terminus were determined using a Luminescence Oxygen Chanelling Immuno-assay (LOCI). The donor beads were coated with streptavidin, while acceptor beads were conjugated with a monoclonal antibody recognizing a mid-/C-terminal epitope of the peptide. The other monoclonal antibody, specific for the N-terminus, was biotinylated. The three reactants were combined with the analyte and formed a two-sited immuno-complex. Illumination of the complex released singlet oxygen atoms from the donor beads, which were channeled into the acceptor beads and triggered chemi-luminescence which was measured in an Envision plate reader. The amount of light was proportional to the concentration of the compound.
Plasma concentration-time profiles was analysed by a non-compartmental pharmacokinetics analysis using Phoenix (Pharsight Inc., Mountain View, Calif., USA). Calculations were performed using individual concentration-time values from each animal.

human GLP-1 receptor = human GLP-1 receptor (Homo sapiens, UniProt P43220); assay: Functional GLP-1 receptor assay, in vitro potency (CRE luciferase; whole cells); format: cell-based; conditions: BHK cells expressing human GLP-1 receptor
[3] = plasma, T1/2 Mean Value, Göttingen mini-pigs, N=3
[4] = 0% HSA, read-out: GLP1R CRE luc 0% HSA EC50 Mean Value
[5] = GLP1R CRE luc 1% HSA EC50 Mean Value, 1% HSA

Sequence of human GLP-1 receptor (P43220 24-463): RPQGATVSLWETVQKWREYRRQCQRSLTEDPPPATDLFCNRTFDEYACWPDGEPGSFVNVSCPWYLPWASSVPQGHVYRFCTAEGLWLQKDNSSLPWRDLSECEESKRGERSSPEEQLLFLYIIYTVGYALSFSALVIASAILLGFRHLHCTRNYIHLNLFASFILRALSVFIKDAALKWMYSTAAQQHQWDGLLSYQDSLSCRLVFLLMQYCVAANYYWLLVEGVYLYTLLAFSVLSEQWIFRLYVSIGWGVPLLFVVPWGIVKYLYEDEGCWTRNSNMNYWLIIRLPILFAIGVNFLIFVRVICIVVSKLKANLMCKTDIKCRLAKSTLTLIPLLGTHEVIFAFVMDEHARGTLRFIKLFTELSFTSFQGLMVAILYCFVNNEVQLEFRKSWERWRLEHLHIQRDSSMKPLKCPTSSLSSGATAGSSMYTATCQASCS

| C0 ([2]; plasma) [nM] | Vd ([2]; plasma) [L/kg] | clearance ([2]; plasma) [mL/h/kg] | half-life [2, 3] [min] | EC50 (human GLP-1 receptor; [4]) [nM] | EC50 (human GLP-1 receptor; [5]) [nM] | C0 ([2]; in vivo) [nM] | Vd ([2]; in vivo) [L/kg] | clearance ([2]; in vivo) [mL/h/kg] | half-life ([2]; in vivo) [min] | half-life ([2]; plasma, T1/2, mini-pigs) [min] | SMILES | 4 h Cholesterol Efflux Emax [1] [%] | EC50 ([1]; read-out: 4 h Cholesterol Efflux EC50, ABCA1-mediated efflux (CPT-cAMP induced minus non-induced)) [nM] |
| --- | --- | --- | --- | --- | --- | --- | --- | --- | --- | --- | --- | --- | --- |
| 62.9 | 0.0809 | 4.99 | 672 | 0.059 | 0.029 | – | – | – | – | – | CC[C@H](C)[C@H](NC(=O)[C@H](Cc1ccccc1)NC(=O)[C@H](CCC(=O)O)NC(=O)[C@H](CCCCN)NC(=O)[C@@H](NC(=O)[C@H](C)NC(=O)[C@H](CCC(=O)O)NC(=O)CNC(=O)[C@H](CCC(=O)O)NC(=O)[C@H](CC(C)C)NC(=O)[C@H](Cc1ccc(O)cc1)NC(=O)[C@H](CO)NC(=O)[C@H](CO)NC(=O)[C@@H](NC(=O)[C@H](CC(=O)O)NC(=O)[C@H](CO)NC(=O)[C@@H](NC(=O)[C@H](Cc1ccccc1)NC(=O)[C@@H](NC(=O)CNC(=O)[C@H](CCC(=O)O)NC(=O)C(C)(C)NC(=O)[C@@H](N)Cc1c[nH]cn1)[C@@H](C)O)[C@@H](C)O)C(C)C)C(C)C)C(=O)N[C@@H](C)C(=O)N[C@@H](Cc1c[nH]c2ccccc12)C(=O)N[C@@H](CC(C)C)C(=O)N[C@H](C(=O)N[C@@H](CCC(=O)O)C(=O)N[C@@H](CCCCN)C(=O)N[C@H](C(=O)N[C@@H](CCCCN)C(=O)N[C@@H](CCC(=O)O)C(=O)N[C@@H](CCCCN)C(=O)N[C@@H](CC(C)C)C(N)=O)C(C)C)C(C)C [Compound 118, [Aib8,Glu23,Val25,Glu34,Lys35,Val36,Lys37]-GLP-1-(7-37)-peptidyl-Glu-Lys-Leu amide] (H-H[Aib]EGTFTSDVSSYLEGEAVKEFIAWLVEKVKEKL-NH2) | 136 | – |
| 108 | 0.0769 | 1.04 | 3080 | 0.039 | 0.013 | – | – | – | – | – | CC[C@H](C)[C@H](NC(=O)[C@H](Cc1ccccc1)NC(=O)[C@H](CCC(=O)O)NC(=O)[C@H](CCCCN)NC(=O)[C@@H](NC(=O)[C@H](C)NC(=O)[C@H](CCC(=O)O)NC(=O)CNC(=O)[C@H](CCC(=O)O)NC(=O)[C@H](CC(C)C)NC(=O)[C@H](Cc1ccc(O)cc1)NC(=O)[C@H](CO)NC(=O)[C@H](CO)NC(=O)[C@@H](NC(=O)[C@H](CC(=O)O)NC(=O)[C@H](CO)NC(=O)[C@@H](NC(=O)[C@H](Cc1ccccc1)NC(=O)[C@@H](NC(=O)CNC(=O)[C@H](CCC(=O)O)NC(=O)C(C)(C)NC(=O)[C@@H](N)Cc1c[nH]cn1)[C@@H](C)O)[C@@H](C)O)C(C)C)C(C)C)C(=O)N[C@@H](C)C(=O)N[C@@H](Cc1c[nH]c2ccccc12)C(=O)N[C@@H](CC(C)C)C(=O)N[C@H](C(=O)N[C@@H](CCC(=O)O)C(=O)N[C@@H](CCCCN)C(=O)NC(C)(C)C(=O)NCC(=O)N[C@@H](CCC(=O)O)C(=O)N[C@@H](Cc1ccccc1)C(=O)N[C@@H](CC(C)C)C(N)=O)C(C)C [Compound 32] (H-H[Aib]EGTFTSDVSSYLEGEAVKEFIAWLVEK[Aib]GEFL-NH2) | 85 | – |
| 53.3 | 0.27 | 5.9 | 1910 | – | – | – | – | – | – | – | CC[C@H](C)[C@H](NC(=O)[C@H](Cc1ccccc1)NC(=O)[C@H](CCC(=O)O)NC(=O)[C@H](CCCCN)NC(=O)[C@@H](NC(=O)[C@H](C)NC(=O)[C@H](CCC(=O)O)NC(=O)CNC(=O)[C@H](CCC(=O)O)NC(=O)[C@H](CC(C)C)NC(=O)[C@H](Cc1ccc(O)cc1)NC(=O)[C@H](CO)NC(=O)[C@H](CO)NC(=O)[C@@H](NC(=O)[C@H](CC(=O)O)NC(=O)[C@H](CO)NC(=O)[C@@H](NC(=O)[C@H](Cc1ccccc1)NC(=O)[C@@H](NC(=O)CNC(=O)[C@H](CCC(=O)O)NC(=O)C(C)(C)NC(=O)[C@@H](N)Cc1c[nH]cn1)[C@@H](C)O)[C@@H](C)O)C(C)C)C(C)C)C(=O)N[C@@H](C)C(=O)N[C@@H](Cc1c[nH]c2ccccc12)C(=O)N[C@@H](CC(C)C)C(=O)N[C@H](C(=O)N[C@@H](CCC(=O)O)C(=O)N[C@@H](CCCCN)C(=O)NC(C)(C)C(=O)N[C@@H](CCCCN)C(=O)N[C@@H](CCC(=O)O)C(=O)N[C@@H](Cc1ccccc1)C(=O)N[C@@H](CC(C)C)C(=O)N[C@@H](CCC(=O)O)C(=O)N[C@@H](CCCCN)C(=O)N[C@H](C(=O)N[C@@H](CCCCN)C(=O)N[C@@H](CCC(=O)O)C(=O)N[C@@H](Cc1ccccc1)C(N)=O)C(C)C)C(C)C [Compound 61] | 82 | – |
| – | – | – | – | – | – | 123 | 0.0889 | 1.44 | 2570 | – | CC[C@H](C)[C@H](NC(=O)[C@H](Cc1ccccc1)NC(=O)[C@H](CCC(=O)O)NC(=O)[C@H](CCCCN)NC(=O)[C@@H](NC(=O)[C@H](C)NC(=O)[C@H](CCC(=O)O)NC(=O)CNC(=O)[C@H](CCC(=O)O)NC(=O)[C@H](CC(C)C)NC(=O)[C@H](Cc1ccc(O)cc1)NC(=O)[C@H](CO)NC(=O)[C@H](CO)NC(=O)[C@@H](NC(=O)[C@H](CC(=O)O)NC(=O)[C@H](CO)NC(=O)[C@@H](NC(=O)[C@H](Cc1ccccc1)NC(=O)[C@@H](NC(=O)CNC(=O)[C@H](CCC(=O)O)NC(=O)C(C)(C)NC(=O)[C@@H](N)Cc1c[nH]cn1)[C@@H](C)O)[C@@H](C)O)C(C)C)C(C)C)C(=O)N[C@@H](C)C(=O)N[C@@H](Cc1c[nH]c2ccccc12)C(=O)N[C@@H](CC(C)C)C(=O)N[C@H](C(=O)N[C@@H](CCC(=O)O)C(=O)N[C@@H](CCCCN)C(=O)NC(C)(C)C(=O)N[C@@H](CCCCN)C(=O)N[C@@H](CCC(=O)O)C(=O)N[C@@H](Cc1ccccc1)C(=O)N[C@@H](CC(C)C)C(=O)O)C(C)C [Compound 16, [Aib8,Glu23,Val25,Glu34,Lys35,Aib36,Lys37]-GLP-1-(7-37)-peptidyl-Glu-Phe-Leu] | 105 | 680 |
| 131 | 0.0878 | 2.68 | 1440 | – | – | – | – | – | – | – | CC[C@H](C)[C@H](NC(=O)[C@H](Cc1ccccc1)NC(=O)[C@H](CCC(=O)O)NC(=O)[C@H](CCCCN)NC(=O)[C@@H](NC(=O)[C@H](CCCCN)NC(=O)[C@H](CCC(=O)O)NC(=O)CNC(=O)[C@H](CCC(=O)O)NC(=O)[C@H](CC(C)C)NC(=O)[C@H](Cc1ccc(O)cc1)NC(=O)[C@H](CO)NC(=O)[C@H](CO)NC(=O)[C@@H](NC(=O)[C@H](CC(=O)O)NC(=O)[C@H](CO)NC(=O)[C@@H](NC(=O)[C@H](Cc1ccccc1)NC(=O)[C@@H](NC(=O)CNC(=O)[C@H](CCC(=O)O)NC(=O)C(C)(C)NC(=O)[C@@H](N)Cc1c[nH]cn1)[C@@H](C)O)[C@@H](C)O)C(C)C)C(C)C)C(=O)N[C@@H](CCC(=O)O)C(=O)N[C@@H](Cc1c[nH]c2ccccc12)C(=O)N[C@@H](CC(C)C)C(=O)N[C@H](C(=O)N[C@@H](CCC(=O)O)C(=O)N[C@@H](CCCCN)C(=O)NC(C)(C)C(=O)N[C@@H](CCCCN)C(=O)N[C@@H](CCC(=O)O)C(=O)N[C@@H](Cc1ccccc1)C(=O)N[C@@H](CC(C)C)C(N)=O)C(C)C [Compound 49, [Aib8,Glu23,Lys24,Val25,Glu30,Glu34,Lys35,Aib36,Lys37]-GLP-1-(7-37)-peptidyl-Glu-Phe-Leu amide] (H-H[Aib]EGTFTSDVSSYLEGEKVKEFIEWLVEK[Aib]KEFL-NH2) | 123 | – |
| 51.2 | 0.146 | 3.71 | 1640 | – | – | – | – | – | – | 1640 | CC[C@H](C)[C@H](NC(=O)[C@H](Cc1ccccc1)NC(=O)[C@H](CCC(=O)O)NC(=O)[C@H](CCCCN)NC(=O)[C@@H](NC(=O)[C@H](C)NC(=O)[C@H](CCC(N)=O)NC(=O)CNC(=O)[C@H](CCC(=O)O)NC(=O)[C@H](CC(C)C)NC(=O)[C@H](Cc1ccc(O)cc1)NC(=O)[C@H](CO)NC(=O)[C@H](CO)NC(=O)[C@@H](NC(=O)[C@H](CC(=O)O)NC(=O)[C@H](CO)NC(=O)[C@@H](NC(=O)[C@H](Cc1ccccc1)NC(=O)[C@@H](NC(=O)CNC(=O)[C@H](CCC(=O)O)NC(=O)C(C)(C)NC(=O)[C@@H](N)Cc1c[nH]cn1)[C@@H](C)O)[C@@H](C)O)C(C)C)C(C)C)C(=O)N[C@@H](C)C(=O)N[C@@H](Cc1c[nH]c2ccccc12)C(=O)N[C@@H](CC(C)C)C(=O)N[C@H](C(=O)N[C@@H](CCC(=O)O)C(=O)N[C@@H](CCCCN)C(=O)NC(C)(C)C(=O)N[C@@H](CCCCN)C(=O)N[C@@H](CCC(=O)O)C(=O)N[C@@H](Cc1ccccc1)C(=O)N[C@@H](CC(C)C)C(N)=O)C(C)C [Compound 7] (H-H[Aib]EGTFTSDVSSYLEGQAVKEFIAWLVEK[Aib]KEFL-NH2) | 90 | – |
